The numbers were not newly measured in article PMC4408927 (Nature, 2015), which cites them from elsewhere.

Assay in data set [1]: not given
This is another data set of the same source.

Regarding `CC(C)(C)c1ccccc1Oc1ncccc1NC(=O)Nc1ccc(OC(F)(F)F)cc1` [BPTU, 1-(2-(2-(tert-butyl)phenoxy)pyridin-3-yl)-3-(4-(trifluoromethoxy)phenyl)urea], the Effect on bleeding entry is “minimal effect”. Moreover, in the data set with platelet aggregation, the Platelet aggregation result is on record as “substantially reduces”.
Consider `CNc1nc(I)nc2c1ncn2[C@H]1C[C@H](OP(=O)(O)O)[C@]2(COP(=O)(O)O)C[C@H]12` [MRS2500, (1′R,2′S,4′S,5′S)-4-(2-Iodo-6-methylaminopurin-9-yl)-1-[(phosphato)methyl]-2(phosphato)bicycle[3.1.0]-hexane], for which the Bleeding time result is on record as “moderate prolongation”. Moreover, the ADP-induced platelet aggregation entry in the data set on platelet aggregation is listed as “completely blocks”. Besides, in data set [1], the Arterial thrombosis entry was “effectively reduces”.
